The source of these data is PubChem BioAssay (NCI).

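Method: 48-hour compound exposure of cells in 96-well plates, five concentrations, linear interpolation of endpoints. GI50 marks 50% less growth. At the TGI there is no net growth.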

Holding throughout (test): NCI tumour cell line growth inhibition, 48 h
Test [1] has as its system 786-0 renal.
Test [2] deals with A498 renal.
Test [3] relates to DU-145 prostate.
The test system of test [4] is HCT-15 colon.
Test [5] has as its system MCF7 breast.
For test [6], the system named is MOLT-4 leukemia.
The test system of test [7] is NCI/ADR-RES ovarian.
The subject of test [8] is OVCAR-3 ovarian.
The subject of test [9] is SF-295 CNS.
Test [10] has as its system U251 CNS.

Turning to `O=C(CC1C=Cc2ccccc2N1C(=O)c1ccccc1)c1ccccc1` (stereo not given), the TGI in test [1] was more than 100 µM; in [2] it was 93.5 µM; in [3], more than 100 µM; in test [4] it was more than 100 µM; in [5] it was more than 100 µM; in test [6], 34.6 µM. Also, the TGI in test [7] is more than 100 µM; in test [8] it was 34.7 µM; in test [9] it was 78.1 µM; in [10], 65.1 µM.
On to `Cc1nc2cc(Nc3nc(Nc4ccc(F)cc4)nc(N4CCOCC4)n3)ccc2n1Cc1ccccc1`, for which the GI50 in [1] was 1.69 µM; in [2] it was 1.3 µM; in test [3], 4.81 µM; in test [4], 2.19 µM; in test [5], 3.23 µM; in test [6] it was 2.7 µM. Also, the GI50 was 5.22 µM in [7], 2.75 µM in test [8], 3.01 µM in test [9] and 1.99 µM in test [10]. Besides, the TGI in test [1] was determined as 3.33 µM; in [2], 4.57 µM; in test [3], 18.8 µM; in test [4], 5.18 µM; in test [5], 13.8 µM; in test [6] it was 8.04 µM. Further, the TGI came out at 45.4 µM in test [7], 7.14 µM in [8], 9.03 µM in test [9] and 4.6 µM in [10].
On to `CC(=O)OC1=CC2(OC(C)=O)CC(C)(C)C1C1C(=O)C=CC(=O)C12` (stereo not given), for which the TGI in test [1] was more than 81.7 µM; in [2], more than 100 µM; in test [3], more than 100 µM; in [4], more than 100 µM; in [5] it was more than 100 µM; in [6], more than 100 µM. Besides, the TGI in test [7], in [8], in test [9] and in test [10] was more than 100 µM in each case.
For the compound `Cc1ccc(-n2nnnc2-c2cnc(N3CCOCC3)nc2-c2cccc(C(F)(F)F)c2)cc1`, the GI50 is 1.89 µM in test [1]; 2.71 µM in [2]; 1.62 µM in test [3]; 3 µM in [4]; 1.32 µM in [5]; 2.18 µM in test [6]. Besides, the GI50 in [7] is 0.825 µM; in [8], 1.05 µM; in [9], 1.1 µM; in [10], 3.52 µM. The TGI was more than 50 µM in test [1]; 17.1 µM in test [2]; 16.9 µM in test [3]; 8.57 µM in test [4]; more than 32.8 µM in [5]; more than 10.4 µM in [6]. The TGI in test [7] is 2.36 µM; in [8], 2.81 µM; in test [9] it was 3.65 µM; in [10] it was more than 10.6 µM.
`CN(C)c1ccc(/C=N/S(=O)(=O)c2ccc(-n3c(-c4ccccc4)nc4c(Br)cc(Br)cc4c3=O)cc2)cc1`: the GI50 in test [1] is 55.7 µM; in test [2], 32.5 µM; in test [3] it was 32.6 µM; in test [4], 51.1 µM; in test [5] it was 28.8 µM; in test [6] it was 33.3 µM. For the same compound, the GI50 in test [7] is 44.6 µM; in test [8], 34.2 µM; in test [9] it was 35.5 µM; in test [10], 40.7 µM. Besides, the TGI in [1] was more than 100 µM; in test [2] it was more than 93.7 µM; in test [3], more than 90.2 µM; in test [4], more than 100 µM; in test [5], more than 78 µM; in [6], more than 80.5 µM. Further, the TGI in test [7], in test [8], in [9] and in test [10] was more than 100 µM in each case.
On to `Nc1nc(N)c2nc3c(nc2n1)CCCCCCCCCC3`, for which the GI50 in test [1] is 0.675 µM; in test [2] it was 6.9 µM; in [3] it was 2.78 µM; in test [4] it was 0.891 µM; in test [5] it was 2.96 µM; in [6] it was 3.83 µM. Moreover, the GI50 in test [7] is 2.4 µM; in [8], 6.15 µM; in [9], 0.509 µM; in test [10], 2.71 µM. For the same compound, the TGI in test [1], in [2], in test [3], in [4], in test [5] and in [6] was more than 100 µM throughout. For the same compound, the TGI in test [7], in [8], in [9] and in test [10] was more than 100 µM each time.
Turning to `Cc1ccc(C2NC(=O)c3ccccc3N2)c(C)c1` (stereo not given), the TGI in test [1] is 97.5 µM; in [2] it was 34.9 µM; in [3], more than 100 µM; in [4] it was more than 77 µM; in test [5], 8.34 µM; in test [6] it was more than 100 µM. Moreover, the TGI in test [7] is 6.5 µM; in test [8], 4.68 µM; in test [9], more than 35 µM; in [10], more than 39.5 µM.
In the case of `COC1CC(N)C(O)C(C)O1` (stereo not given), the TGI in [1], in [2], in [3], in test [4], in test [5] and in [6] was more than 100 µM each time. The TGI in test [7], in [8], in test [9] and in test [10] was more than 100 µM each time.
`CC1=Nc2c([nH]c(=S)[nH]c2=O)NC(c2c(Cl)cccc2Cl)C1` (stereo not given): the TGI in test [1] stood at 1.76 µM; in [2], 6.68 µM; in test [3], 3.51 µM; in [4], 8.67 µM; in test [5] it was 3.12 µM; in [6] it was 5.43 µM. The TGI in test [7] was determined as 0.412 µM; in test [8], 4.16 µM; in test [9] it was 4.41 µM; in test [10] it was 2.32 µM.
For `CC1(C)Cc2c(Br)c(Br)c(Br)c(OCC(O)CN3CCN(c4ccccn4)CC3)c2O1` (stereo not given), the GI50 in test [1] is 12.5 µM; in test [2], 14.8 µM; in test [3], 14.4 µM; in test [4], 10.9 µM; in test [5], 10.3 µM; in [6], 3.19 µM. Moreover, the GI50 in test [7] was 16.3 µM; in test [8], 9.54 µM; in test [9], 6.11 µM; in test [10], 11.3 µM. The TGI was 26.1 µM in test [1]; 29.5 µM in test [2]; 30.6 µM in [3]; 26.5 µM in test [4]; 22.4 µM in test [5]; 19 µM in [6]. Besides, the TGI in test [7] was 42.6 µM; in test [8] it was 23.4 µM; in test [9] it was 21.4 µM; in [10], 23.3 µM.
For `CCSC[C@@H]1C[C@](O)(c2ccc(F)cc2)[C@@H](c2ccc(F)cc2)O1`, the GI50 in test [1] is 16.4 µM; in [2] it was 19 µM; in test [3] it was 15.1 µM; in test [4], 17.4 µM; in [5], 17.1 µM; in test [6], 3.21 µM. The GI50 in [7] was 21.3 µM; in test [8], 19.2 µM; in test [9] it was 15.3 µM; in [10] it was 17.8 µM. The TGI in [1] turned out to be 31.1 µM; in test [2], 33.1 µM; in test [3], 28.4 µM; in test [4] it was 33 µM; in test [5] it was 34.8 µM; in [6] it was 11.1 µM. Further, the TGI in [7] was determined as 51 µM; in test [8], 37.1 µM; in test [9] it was 31.6 µM; in [10], 31.7 µM.
Turning to `CC(=O)Nc1n[n+]([O-])c2cc(C)ccc2[n+]1[O-]`, the TGI is 17.5 µM in [1]; 19.4 µM in test [2]; 18.4 µM in [3]; 14.9 µM in test [4]; 3.66 µM in test [5]; more than 100 µM in test [6]. The TGI was more than 44.7 µM in [7], 7.77 µM in test [8], 12.6 µM in [9] and 14.2 µM in test [10].
On to `CN(C)c1cccc(F)c1C(=O)NC(=O)Nc1ccc(Cl)cc1`, for which the TGI in [1] was more than 100 µM; in test [2], more than 74.8 µM; in [3], more than 100 µM; in test [4] it was more than 31.5 µM; in test [5], more than 100 µM; in test [6], more than 100 µM. Moreover, the TGI in [7] is more than 44.4 µM; in test [8], more than 100 µM; in [9], more than 21.4 µM; in [10], more than 100 µM.
On to `COc1cnc2c(c1)C(=O)c1c-2n(CCCN2CCC(O)CC2)c(=O)c2cc(Cl)ccc12`, for which the GI50 is 0.28 µM in test [1]; 0.704 µM in test [2]; 0.279 µM in test [3]; 1.17 µM in test [4]; 0.0422 µM in test [5]; 0.0745 µM in test [6]. The GI50 is 0.167 µM in [7], 1.4 µM in [8], 0.165 µM in test [9] and 0.0904 µM in [10]. Further, the TGI in test [1] was 1.36 µM; in [2], 21.8 µM; in test [3], 1.71 µM; in test [4], 2.55 µM; in test [5], 1.54 µM; in test [6] it was 5.34 µM. Also, the TGI in test [7] stood at 2.31 µM; in test [8], 3.03 µM; in test [9], 1.67 µM; in [10] it was 1.7 µM.
